Reference: US10064858B2, “Methods and compositions for treating bacterial infections with iron chelators” (THE UNITED STATES OF AMERICA, AS REPRESENTED BY THE …, priority 2011, dated 2018)
Like-named read-outs stand apart in the source and are kept apart here.

Legend:
Format in all cases: cell-based
[1] = test system: AB5075 a MDR-clinical isolate of A. baumannii; experiment: Time-kill assay in CAMHB; conditions: for effect on CFU/ml (time-kill, FIG. 13): 2 and 6 hours; for time-kill course of CFU/mL: 24 hours (FIG. 8A)
Protocol: Reductions in colony forming units (CFU)/mL were determined over time (time-kill assay) after exposure to VK28 and deferiprone (DFP), the two iron chelators that performed best in MIC assays when compared to controls. To better represent the iron content found in the human body, MIC and time-kill assays were also determined in minimal media and tissue culture media. Time-Kill assays were performed as previously described in G. P. Neupane et al., “In vitro time-kill activities of ciprofloxacin alone and in combination with the iron chelator deferasirox against Vibrio vulnificus,” European Journal of Clinical Microbiology and Infectious Diseases, 407-410 (2010); and R. L. White, et al., “Comparison of Three Different In Vitro Methods of Detecting synergy: Time-Kill, Checkerboard, and E test,” Journal of Antimicrobial Agents and Chemotherapy, 1914-1918 (1996). Initial inocula, for example 1×10^6 CFU/mL or 1×10^7 CFU/mL were challenged with iron chelator with and/or without an antibiotic. Cells were allowed to grow in CAMHB at 37° C. for 24 hours. Time-kill results were analyzed by determining the change in log 10 numbers of CFU/ml at 0, 6, and 24 h, compared to counts at 0 h. Antimicrobials were considered bactericidal at the lowest concentration that reduced the size of the original inoculum by >3 log 10 CFU/ml (99.9%) over each of the time periods and were considered bacteriostatic if the inoculum's size was reduced by 0 to <3 log 10 CFU/ml.
(§1) In this example, time-kill assays were performed as described in Example 9 using Apo6619 as the iron chelator against AB5075 (MRSN959), the MDR-clinical isolate of A. baumannii. The initial inocula was 1×10^6 CFU/mL, and were challenged with 0.5×MIC, 1×MIC and 2×MIC of Apo6619. Time-kill results were analyzed by determining the change in log 10 numbers of CFU/mL at 0, 2 and 4 hours.
as §1, with “VK28 or DFP” for “Apo6619”, “AB5075,” for “AB5075 (MRSN959),”, “either VK28 or DFP.” for “Apo6619.”, “at” for “at 0,”, “6” for “4”

[2] = test system: multi-drug resistant bacterial species; experiment: Checkerboard, synergy with rifampin (summary)
Excerpt: Drug interactions were initially evaluated with the “checkerboard” microdilution design, which provided a matrix of all drug combinations assayed in terms of fractions of the previously determined MIC. The checkerboard microdilution design is described in R. J. Tallarida, “Drug Synergism: Its Detection and Applications,” Journal of Pharmacology and Experimental Therapeutics, 865-872 (2001); and in R. L. White, et al., (1996), supra. FIGS. 39A and 39B show the wellplates having different concentrations of iron chelator and antibiotic, as labeled along the x-axis and y-axis.
The checkerboard assay was used to asses other combinations of iron chelators and antibiotics. The fractional inhibitory concentration index (FIC), which was calculated as follows: FIC=(MIC A in combination/MIC A)+(MIC B in combination/MIC B). Interaction was defined as synergistic if the FIC was <1.0, preferably <0.5, no interaction if the FIC was >1.0 and <4.0, and antagonistic if the FIC was >4.0.
The assay was run against the multi-drug resistant bacterial species AB 19606, AB 17978, KP ndm, PA PAO1, PA 27853, EC 35718, and EC 43888. Blank spaces indicate concentrations not tested. […] Against the species PA PAO1 and PA 27853, all the antibiotics except for Ami.

Acinetobacter baumannii = experiment: MIC in RPMI1640 media (Table 2)
Protocol: (§2) […] […] Tests were performed in triplicate. MIC of iron chelators were determined for noscomial ESKAPE pathogens.
(§3) This media is closer to the iron levels in the human body. MICs are in ug/mL.

K. pneumonia = experiment: MIC in RPMI1640 media (Table 2); conditions: Klebsiella pneumoniae
Protocol: as §2, §3

P. aeruginosa = experiment: MIC in RPMI1640 media (Table 2); conditions: Pseudomonas aeruginosa
Protocol: as §2, §3

E. coli = experiment: MIC in RPMI1640 media (Table 2)
Protocol: as §2, §3

[3] = test system: clinical isolates of A. baumannii; experiment: MIC for clinical isolates in RPMI (low iron) media (Table 4); design: key to MIC of Iron Chelators: NG = no growth in table 4; conditions: for MIC: Acinetobacter baumannii
Protocol: as §2
For a number of strains, the iron chelators produced no growth of bacteria (NG).

OCCN1CCN(Cc2ccc(O)c3ncccc23)CC1 [VK28, 5-(4-(2-hydroxyethyl)piperazin-1-ylmethyl)-8-hydroxyquinoline]
effect on CFU/ml (time-kill, FIG. 13) ([1]; 0.5 MIC): inhibitory effect on the CFU/ml | CFU/mL at 24 hours ([1]; 0.5 MIC, CAMHB): about 1×10^9 CFU/mL | time-kill course of CFU/mL ([1]; 0.5×MIC, CAMHB): initial decrease in CFU/mL at 2 and 6 hours, but rebounded | effect on CFU/ml (time-kill, FIG. 13) ([1]; 1×MIC): inhibitory effect on the CFU/ml | time-kill course of CFU/mL ([1]; 1×MIC, CAMHB): did not increase in CFU over the 24 hour period | effect on CFU/ml (time-kill, FIG. 13) ([1]; 2×MIC): inhibitory effect on the CFU/ml | time-kill course of CFU/mL ([1]; 2×MIC, CAMHB): decrease in CFU/mL after 2 hours that was sustained through the 24 hour period | synergy with rifampin, checkerboard [2]: moderate degrees of synergy | MIC (Acinetobacter baumannii; ATCC17978, ATCC 17978, read-out: MIC of Iron Chelators): 32 µg/mL | MIC (Acinetobacter baumannii; ATCC19606, ATCC 19606, read-out: MIC of Iron Chelators): 8 µg/mL | MIC (K. pneumonia; ATCC700603, ATCC 700603, read-out: MIC of Iron Chelators): 16 µg/mL | MIC (K. pneumonia; BAA2146, BAA-2146, read-out: MIC of Iron Chelators): 16 µg/mL | MIC (P. aeruginosa; ATCC27853, ATCC 27853, read-out: MIC of Iron Chelators): 16 µg/mL | MIC (P. aeruginosa; PAO1, read-out: MIC of Iron Chelators): 16 µg/mL | MIC (E. coli; Escherichia coli, 35718, read-out: MIC of Iron Chelators): 32 µg/mL | MIC (E. coli; Escherichia coli, ATCC43888, ATCC 43888 (0157:H7), read-out: MIC of Iron Chelators): 8 µg/mL | MIC of Iron Chelators ([3]; AB967): NG | MIC of Iron Chelators ([3]; AB2828): NG | MIC of Iron Chelators ([3]; AB3340): NG | MIC of Iron Chelators ([3]; AB3560): NG | MIC of Iron Chelators ([3]; AB3927): NG | MIC ([3]; AB3638, read-out: MIC of Iron Chelators): 8 µg/mL | MIC ([3]; AB3785, read-out: MIC of Iron Chelators): 8 µg/mL | MIC ([3]; AB3806, read-out: MIC of Iron Chelators): 8 µg/mL | MIC ([3]; AB3917, read-out: MIC of Iron Chelators): 4 µg/mL | MIC ([3]; AB4025, read-out: MIC of Iron Chelators): 8 µg/mL | MIC ([3]; AB4026, read-out: MIC of Iron Chelators): 8 µg/mL | MIC ([3]; AB4027, read-out: MIC of Iron Chelators): 8 µg/mL | MIC ([3]; AB4052, read-out: MIC of Iron Chelators): 8 µg/mL | MIC ([3]; AB4269, read-out: MIC of Iron Chelators): 8 µg/mL | MIC ([3]; AB4448, read-out: MIC of Iron Chelators): 8 µg/mL | MIC ([3]; AB4456, read-out: MIC of Iron Chelators): 8 µg/mL | MIC ([3]; AB4490, read-out: MIC of Iron Chelators): 8 µg/mL | MIC ([3]; AB4498, read-out: MIC of Iron Chelators): 8 µg/mL | MIC ([3]; AB4795, read-out: MIC of Iron Chelators): 4 µg/mL | MIC ([3]; AB4857, read-out: MIC of Iron Chelators): 8 µg/mL | MIC ([3]; AB4878, read-out: MIC of Iron Chelators): 8 µg/mL | MIC ([3]; AB4932, read-out: MIC of Iron Chelators): 8 µg/mL | MIC ([3]; AB4957, read-out: MIC of Iron Chelators): 8 µg/mL | MIC ([3]; AB4991, read-out: MIC of Iron Chelators): 8 µg/mL | MIC ([3]; AB5001, read-out: MIC of Iron Chelators): 8 µg/mL | MIC ([3]; AB5075, read-out: MIC of Iron Chelators): 8 µg/mL | MIC ([3]; AB5197, read-out: MIC of Iron Chelators): 4 µg/mL | MIC ([3]; AB5256, read-out: MIC of Iron Chelators): 8 µg/mL | MIC ([3]; AB5674, read-out: MIC of Iron Chelators): 8 µg/mL | MIC ([3]; AB5711, read-out: MIC of Iron Chelators): 8 µg/mL
